{
  "source": "patent US20190388558A1",
  "about": "“KARTOGENIN DERIVATIVE-CONTAINING POLYMERIC MICELLE, HYALURONIC ACID HYDROGEL, METHOD FOR PRODUCING THE SAME, AND USE THEREOF” (DONGGUK UNIVERSITY INDUSTRY-ACADEMIC COOPERATION FOUNDATION, priority 2018, published 2019)",
  "tested_on": "rats in which OA was induced",
  "assay": "Intra-articular injection in rats with surgically induced (ACLT + MM) degenerative arthritis; histology, immunohistochemistry, OARSI and Mankin scoring",
  "format": "in vivo, Sprague Dawley rats",
  "details": "IA injection twice at 7th and 10th week after surgery, sacrificed 8th week after first injection",
  "protocol": "Animal experiments were performed with the approval of the animal experiment ethics committee by using 9-week old male Sprague Dawley rats (Orient Inc., Seoul, Korea). Degenerative arthritis (osteoarthritis; OA) was induced by performing anterior cruciate ligament transection (ACLT) and medial meniscectomy (MM) on the rats, and the rats were allowed to exercise on a treadmill for 20 minutes every day from two weeks after the surgery.\nIn the Examples of the present invention, technical statistics were used in order to determine the group average and standard deviation. […]\nThe rats were sacrificed at 8th week after the first IA injection, the knee joints were dissected and fixed with 10% paraformaldehyde (at 4° C. for 1 day), and then calcareous materials were removed with a Lite decalcifying solution (Sigma-Aldrich), and after the resulting knee joints were embedded in a Tissue-Tek OCT compound (Sakura Finetek, Torrance, Calif., USA) or paraffin wax, and then the paraffin wax fragment was stained with Safranin-O (4% w/v) and Fast Green (0.1% w/w). The degenerative state was evaluated by using an Osteoarthritis Research Society International (OARSI) cartilage Histopathology Assessment System and a Mankin evaluation system, and the fragments were analyzed through immunohistochemistry for COL2 and aggrecan. […]",
  "data": [
    {"smiles": "O=C(O)c1ccccc1C(=O)Nc1ccc(-c2ccccc2)cc1", "note": "[KGN, kartogenin]", "values": [
      {"measurement": "cartilage histology (Safranin-O staining)", "value": "loss of cartilage due to matrix vertical cracks and surface layer exfoliation"}
    ]}
  ]
}
